Reference: publication PMC8428568, “Discovery of re-purposed drugs that slow SARS-CoV-2 replication in human cells” (PLoS Pathogens, 2021)
Where a name gives a salt, the structure may show the parent alone. Read-outs that look alike come from different tables or passages of the source.

Legend:
[1] = test system: SARS-CoV-2-ΔOrf7a-NLuc virus; assay: microbe, parasite or virus in culture; assay type: cell-based; settings: for activity at 10 µM: Severe acute respiratory syndrome coronavirus 2, Vero, 72 h, read-out: Mean relative luminescence (n=4)
[2] = test system: SARS-CoV-2-ΔOrf7a-NLuc virus; assay: microbe, parasite or virus in culture; assay type: cell-based
[3] = test system: recombinant NLuc; assay type: biochemical
[4] = test system: Vero cells
[5] = test system: HUH7 cells
[6] = […], 1 = untreated, 0 = total inhibition
[7] = Vero screen, […], relative luminescence
[8] = HUH7 screen, […], relative luminescence
[9] = recombinant NLuc activity relative to DMSO
[10] = recombinant NLuc, first read column
[11] = recombinant NLuc, fourth read column
[12] = recombinant NLuc, third read column
[13] = Vero cells, 10 μM, 1 = DMSO-treated infected cells

Structure (SMILES)	% activity in Vero 100PFU screen [1] [%]	activity at 10 µM [1, 6] [%]	Mean relative luminescence (n=4) [1, 7]	Mean relative luminescence (n=4) [2, 8]	Relative Recombinant NLUC [3, 9]	Reads Counts per second (read 1) [3, 10] [Counts per second]	Reads Counts per second (read 4) [3, 11] [Counts per second]	Reads Counts per second (read 3) [3, 12] [Counts per second]	PrestoBlue relative viability [4, 13]	PrestoBlue relative viability ([4]; Vero screen)	PrestoBlue relative viability ([5]; HUH7 screen)	Mean relative luminescence (n=4) [1, 6]	further results
O=C(c1ccc(OCCN2CCCCC2)cc1)c1c(-c2ccc(O)cc2)sc2cc(O)ccc12 [Raloxifene HCl]	6	2.63	0.02628	0.03646	0.8812	334037	335545	331016	0.579	0.579	0.5413	–	–
CN(C)CC/C=C1/c2ccccc2Sc2ccc(Cl)cc21.Cl [Chlorprothixene (hydrochloride)]	4.28	–	0.0137	0.03176	0.9574	359664	361186	361391	0.8299	0.8299	0.7623	0.0137	–
CNCC[C@H](Oc1cccc2ccccc12)c1cccs1 [Duloxetine HCl]	12	–	–	–	–	–	–	–	–	–	–	–	activity at 10 µM [1]: 9.8%; Mean relative luminescence (n=4) [2]: 0.02845; Reads Counts per second (read 1) [3]: 297459 Counts per second; Reads Counts per second (read 3) [3]: 293652 Counts per second; Reads Counts per second (read 4) [3]: 301826 Counts per second; Relative Recombinant NLUC [3]: 0.7894; PrestoBlue relative viability ([4]; African green monkey): 0.9914; PrestoBlue relative viability ([5]; human): 0.5048
Cl.Cl.Cl.O[C@@H](COc1cccc2ncccc12)CN1CCN([C@@H]2c3ccccc3[C@@H]3[C@H](c4ccccc42)C3(F)F)CC1 [LY335979 (Zosuquidar 3HCL), Zosuquidar 3HCL]	3	–	0.008621	0.08231	0.9362	352212	351420	356783	0.5866	0.5866	0.6203	0.008621	–
COc1cc2nccc(Oc3ccc(NC(=O)C4(C(=O)Nc5ccc(F)cc5)CC4)cc3)c2cc1OC [Cabozantinib malate (XL184), Cabozantinib malate]	12	10.3	0.1026	0.03412	0.8679	333265	328687	329153	0.5119	0.5119	0.8011	–	–
CCc1cnn2c(NCc3ccc[n+]([O-])c3)cc(N3CCCC[C@H]3CCO)nc12 [Dinaciclib (SCH727965), Dinaciclib]	5	3.29	0.03292	0.06294	0.9134	345056	346073	342151	0.664	0.664	0.5934	–	–
COc1nc2ccc(Br)cc2cc1[C@@H](c1ccccc1)[C@@](O)(CCN(C)C)c1cccc2ccccc12.O=C(O)/C=C/C(=O)O [Bedaquiline fumarate]	3.58	–	0.01053	0.1084	0.9227	351974	338630	351293	1.113	1.113	0.5224	0.01053	Reads Counts per second (read 2) ([3]; recombinant NLuc): 352561 Counts per second
COC(=O)C1=C(C)NC(C)=C(C(=O)O[C@@H]2CCCN(Cc3ccccc3)C2)[C@@H]1c1cccc([N+](=O)[O-])c1.Cl (racemic) [Benidipine HCl]	1.81	–	0.003673	0.003821	0.1313	50508	49177	49185	0.8086	0.8086	0.6609	0.003673	Reads Counts per second (read 2) ([3]; recombinant NLuc): 49563 Counts per second
CCCCc1oc2ccccc2c1C(=O)c1cc(I)c(OCCN(CC)CC)c(I)c1 [Amiodarone HCl]	–	3.18	0.03182	0.03404	0.9671	364410	366409	365644	0.8378	0.8378	0.9633	–	Reads Counts per second (read 2) ([3]; recombinant NLuc): 365102 Counts per second
CC[C@H](C)C(=O)O[C@H]1C[C@@H](C)C=C2C=C[C@H](C)[C@H](CC[C@@H]3C[C@@H](O)CC(=O)O3)[C@H]21 [Lovastatin]	9	8.28	0.0828	0.08758	0.9319	351803	349914	353101	0.5479	0.5479	1.075	–	–
Cc1cc(C2CCCCC2)n(O)c(=O)c1.NCCO [Ciclopirox ethanolamine]	7	–	0.05436	0.04601	0.961	358391	361119	365653	0.5173	0.5173	0.5023	0.05436	–
COCCOC(=O)C1=C(C)NC(C)=C(C(=O)OC/C=C/c2ccccc2)C1c1cccc([N+](=O)[O-])c1 (stereo not shown) [Cilnidipine]	0.696	0.039	0.0003902	0.00182	0.07521	28828	27971	28106	0.8017	0.8017	0.797	–	–
O=C(/C=C\n1cnc(-c2cc(C(F)(F)F)cc(C(F)(F)F)c2)n1)NNc1cnccn1 [KPT-330]	3.73	0.545	0.005454	0.05859	1.022	378225	381493	389989	0.581	0.581	0.7102	–	–
Clc1ccc(C(Cn2ccnc2)OCc2ccsc2Cl)c(Cl)c1 (stereo not shown) [Tioconazole]	10	–	–	–	–	–	–	–	–	–	–	–	activity at 10 µM [1]: 7.16%; Mean relative luminescence (n=4) [2]: 0.1247; Reads Counts per second (read 1) [3]: 349867 Counts per second; Reads Counts per second (read 3) [3]: 345556 Counts per second; Reads Counts per second (read 4) [3]: 349383 Counts per second; Relative Recombinant NLUC [3]: 0.9221; PrestoBlue relative viability ([4]; African green monkey): 1.172; PrestoBlue relative viability ([5]; human): 1.129
CCOC(=O)C1=C(C)NC(C)=C(C(=O)OC)C1c1cccc([N+](=O)[O-])c1 (stereo not shown) [Nitrendipine]	8.56	7.21	0.07211	0.0007292	0.06915	26271	26141	26096	0.8649	0.8649	0.6545	–	–
